Tests used:
HIV-1RF = experiment: Cytoprotection in CEM-SS cells infected with HIV-1RF (XTT); assay type: cell-based; conditions: CEM-SS cells infected with RF strain of HIV-1, six days
Description: (§1) To evaluate whether the protease inhibitors described herein retain the ability to protect against HIV-1 infection, CEM-SS cells infected with the RF strain of HIV-1 were treated with test compounds for six days, and then cell viability was monitored using the tetrazolium dye XTT. Infection studies were performed and EC50 values were calculated as the protease inhibitor concentration leading to 50% reduction in cell death compared to virus-infected cells without protease inhibitor. TC50 values were calculated as the protease inhibitor concentration leading to 50% cell death in the absence of viral infection. A value for Therapeutic Index (TI) was calculated as TC50/EC50.

CEM-SS cells = assay type: cell-based
Description: as §1

[1] = tested on: human peripheral blood mononuclear cells (PBMCs); assay type: cell-based
Description: (§2) Fresh human peripheral blood mononuclear cells (PBMCs) obtained from a commercial source were purified following centrifugation using a Ficoll-Hypaque density gradient. Viable cells were induced to proliferate in the presence of PHA-P and recombinant human IL-2 for 72 hours. PBMCs pooled from three donors were cultured with test compounds in the presence of the HT/92/599 clinical subtype B HIV-1 for seven days, followed by measurement of reverse transcriptase activity in cell supernatants using a radioactive incorporation polymerization assay. Cell supernatant containing HIV-1 viral was incubated for 90 minutes at 37° C. with a reaction mixture containing EGTA, Triton X-100, Tris (pH 7.4), DTT, MgCl2, poly rA, oligo dT, and tritiated thymidine triphosphate (TTP). Incorporation of TTP into DNA was monitored by spotting the reaction mixture onto a DEAE filter mat, followed by washes with 5% phosphate buffer, distilled water, and 70% ethanol, and subsequent drying of the mat. Radioactivity was measured using a Wallac 1450 Microbeta Trilux liquid scintillation counter using Opti-Fluor O. Test compound-associated toxicity was measured in PBMCs cultured for seven days in the absence of virus using XTT reagent. EC50 and EC90 values were calculated as the protease inhibitor concentration leading to 50% and 90% reduction in […], respectively, compared to virus-infected cells without protease inhibitor. TC50 values were calculated as the protease inhibitor concentration leading to 50% cell death in the absence of viral infection. A value for Therapeutic Index (TI) was calculated as TC50/EC50.

[2] = tested on: HT/92/599 clinical subtype B HIV-1; experiment: HIV-1 reverse transcriptase activity following infection in fresh human PBMCs; assay type: cell-based; conditions: seven days; for EC50: read-out: PBMC/HIV-1HT/92/599 EC50; for EC90: read-out: PBMC/HIV-1HT/92/599 EC90
Description: as §2, with “Cell supernatant containing HIV-1 viral was incubated for 90 minutes at 37° C. with a reaction mixture containing EGTA, Triton X-100, Tris (pH 7.4), DTT, MgCl2, poly rA, oligo dT, and tritiated thymidine triphosphate (TTP).” left out

[3] = Pharmacokinetics of released PEGylated protease inhibitor following P.O. administration of prodrugs in rats; assay type: in vivo, male Sprague-Dawley rats; parameters: AUCall Mean: concentration or dose not given beside the values; conditions: rats (n = 4-5)
Summary of the method: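 Prodrugs given orally to male Sprague-Dawley rats, with serial blood via jugular catheter into K2EDTA. Plasma levels of test article or released PEGylated inhibitor measured by LC-MS/MS. PK parameters from noncompartmental analysis.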

[4] = Pharmacokinetics of PEGylated protease inhibitor prodrugs in rats; assay type: in vivo, male Sprague-Dawley rats; parameters: AUCall / AUC: concentration or dose not given beside the values; conditions: prodrug in plasma; for AUCall / Cmax: mean ± SD
Description: Pharmacokinetic analysis of protease inhibitors described herein was conducted. To evaluate the pharmacokinetics of PEGylated protease inhibitor conjugates with releasable lipophilic attachments, test compounds were administered to male Sprague-Dawley rats.
At various times following test article administration, serial blood samples were collected from indwelling jugular vein catheters and transferred to micro-tubes containing 7.5 μL of 20% w/v K2EDTA as an anticoagulant. Following processing of the blood samples to plasma (10 minutes at 10000 rpm, Centrifuge Model: Kubota 3500), plasma concentrations of the test article or corresponding PEGylated molecule released from the test article was measured using LC-MS/MS methods. Pharmacokinetic parameters were estimated using noncompartmental methods.
Table 3 presents a summary of pharmacokinetic parameters of PEGylated protease inhibitor prodrugs, wherein Cmax is the maximum (peak) concentration, AUCall represents the area under the concentration-time curve from zero to time of last concentration value, T½ is half life, and MRTlast is the mean residence time to last observable concentration

[5] = mPEG5-atazanavir in plasma after PO administration of mPEG5-ATV or of the listed prodrug
[6] = mPEG6-atazanavir in plasma after PO administration of mPEG6-ATV or of the listed prodrug
[7] = mPEG3-atazanavir in plasma after PO administration of mPEG3-ATV or of the listed prodrug

Compound | MRTlast [4] [h] | t½(z) [4] | AUCall [4] [ng·h/mL] | Cmax [4] [ng/mL] | AUCall Mean [3, 6] [ng·h/mL] | Cmax Mean [3, 6] [ng/mL] | MRT last Mean [3, 6] [h] | Tmax Median [3, 6] [h] | further results
CCCCCCCCCCCCCCCCOCC(COP(=O)(O)OC(CN(Cc1ccc(-c2ccccn2)cc1)NC(=O)C(NC(=O)OC)C(C)(C)C)C(Cc1ccccc1)NC(=O)C(NC(=O)OCCOCCOCCOC)C(C)(C)C)OC (stereo not shown) [mPEG3-Atazanavir-monophospholipid] |  |  |  |  |  |  |  |  | EC50 (HIV-1RF): 0.35 µM; CC50 (CEM-SS cells): 14.2 µM; CC50 [1]: 43.7 µM; EC50 [2]: 0.97 µM; EC90 [2]: 2.52 µM
COCCOCCOCCOCCOCCOC(=O)NC(C(=O)NC(Cc1ccccc1)C(CN(Cc1ccc(-c2ccccn2)cc1)NC(=O)C(NC(=O)OC)C(C)(C)C)OCOC)C(C)(C)C (stereo not shown) [mPEG5-Atazanavir-methyl methyl ether, mPEG5-Atazanavir Methyl Methyl Ether] | 3.93 ± 1.41 | 4.54 ± 1.68 h | 3530 ± 1960 | 773 ± 481 |  |  |  |  | AUCall Mean [3, 5]: 137 ng·h/mL; Cmax Mean [3, 5]: 23.3 ng/mL; MRT last Mean [3, 5]: 4.76 h; Tmax Median [3, 5]: 2.00 h; Cmin(24 hr) [4]: 6.61 ± 8.39 ng/mL
CCCCCCCCCCCCCCCCOCC(COP(=O)(O)OC(CN(Cc1ccc(-c2ccccn2)cc1)NC(=O)C(NC(=O)OC)C(C)(C)C)C(Cc1ccccc1)NC(=O)C(NC(=O)OCCOCCOCCOCCOCCOC)C(C)(C)C)OC (stereo not shown) [mPEG5-Atazanavir-monophospholipid] |  |  |  |  |  |  |  |  | CEM-SS/HIV-1RF EC50 (HIV-1RF): no EC50 value could be determined; EC50 (HIV-1RF): > 200 µM; CC50 (CEM-SS cells): 12 µM; CC50 [1]: 17.1 µM; EC50 [2]: 12.3 µM; EC90 [2]: 26.8 µM
COCCOCCOCCOCCOCCOCCOC(=O)NC(C(=O)NC(Cc1ccccc1)C(CN(Cc1ccc(-c2ccccn2)cc1)NC(=O)C(NC(=O)OC)C(C)(C)C)OC(=O)COCCOC(=O)C(N)CC(C)C)C(C)(C)C.Cl (stereo not shown) [mPEG6-Atazanavir-CME-Leucine HCl, mPEG6-Atazanavir-CME-Leucine] | 2.24 ± 2.58 |  | 2.56 ± 2.89 | 0.851 ± 0.730 | 287 | 8.65 | 21.8 | 1.50 | 
COCCOCCOCCOCCOCCOCCOC(=O)NC(C(=O)NC(Cc1ccccc1)C(CN(Cc1ccc(-c2ccccn2)cc1)NC(=O)C(NC(=O)OC)C(C)(C)C)OC(=O)COCCOC(=O)C(N)Cc1ccccc1)C(C)(C)C.Cl (stereo not shown) [mPEG6-Atazanavir-CME-phenylalanine HCl] | 0.948 ± 0.0741 |  | 6.41 ± 9.53 | 8.21 ± 12.1 | 351 | 12.5 | 22.1 | 1.00 | 
COCCOCCOCCOCCOCCOCCOC(=O)NC(C(=O)NC(Cc1ccccc1)C(CN(Cc1ccc(-c2ccccn2)cc1)NC(=O)C(NC(=O)OC)C(C)(C)C)OC(=O)C(N)CC(C)C)C(C)(C)C.Cl [mPEG6-Atazanavir-L-Leucine] | 1.72 ± 0.237 | 2.02 ± 1.07 h | 107 ± 62.4 | 55.5 ± 41.6 | 148 | 9.49 | 10.2 | 0.500 | 
COCCOCCOCCOCCOCCOCCOC(=O)NC(C(=O)NC(Cc1ccccc1)C(CN(Cc1ccc(-c2ccccn2)cc1)NC(=O)C(NC(=O)OC)C(C)(C)C)OCOC)C(C)(C)C (stereo not shown) [mPEG6-Atazanavir-methyl methyl ether, mPEG6-Atazanavir Methyl Methyl Ether] | 5.12 ± 1.74 | 11.2 ± 7.72 h | 1140 ± 312 | 222 ± 73 | 55.8 | 11.3 | 3.11 | 1.50 | Cmin(24 hr) [4]: 3.47 ± 2.81 ng/mL
CCCCCCCCCCCCCCCCOCC(COP(=O)(O)OC(CN(Cc1ccc(-c2ccccn2)cc1)NC(=O)C(NC(=O)OC)C(C)(C)C)C(Cc1ccccc1)NC(=O)C(NC(=O)OCCOCCOCCOCCOCCOCCOC)C(C)(C)C)OC (stereo not shown) [mPEG6-Atazanavir-monophospholipid, mPEG6-atazanavir monophospholipid] |  |  |  |  | 0.108 | 0.432 | 0.250 | 0.250 | EC50 (HIV-1RF): 14.2 µM; CC50 (CEM-SS cells): 12.6 µM; CC50 [1]: 37.6 µM; EC50 [2]: 12.4 µM; EC90 [2]: 26.3 µM
COCCOCCOCCOC(=O)NC(C(=O)NC(Cc1ccccc1)C(CN(Cc1ccc(-c2ccccn2)cc1)NC(=O)C(NC(=O)OC)C(C)(C)C)OC(=O)C(N)CC(C)C)C(C)(C)C.Cl [mono-mPEG3-Atazanavir-L-Leucine, mPEG3-Atazanavir-L-Leucine] | 2.73 ± 0.912 | 3.33 ± 0.958 h | 1930 ± 1170 | 470 ± 179 |  |  |  |  | AUCall Mean [3, 7]: 347 ng·h/mL; Cmax Mean [3, 7]: 66.0 ng/mL; MRT last Mean [3, 7]: 4.14 h; Tmax* Median [3, 7]: 0.750 h
Acetate Ester-mPEG5-Atazanavir [Acetate-OCHMe—OCO2-mPEG5-Atazanavir] | 6.21 ± 3.38 | 4.82 ± 3.10 h | 616 ± 156 | 115 ± 29.0 |  |  |  |  | AUCall Mean [3, 5]: 616 ng·h/mL; Cmax Mean [3, 5]: 115 ng/mL; MRT last Mean [3, 5]: 6.21 h; Tmax Median [3, 5]: 0.750 h
Methoxyacetate Ester-mPEG5-Atazanavir | 5.81 ± 2.95 | 6.30 ± 2.06 h | 298 ± 121 | 38.7 ± 13.8 |  |  |  |  | AUCall Mean [3, 5]: 298 ng·h/mL; Cmax Mean [3, 5]: 38.7 ng/mL; MRT last Mean [3, 5]: 5.81 h; Tmax Median [3, 5]: 1.50 h
Phe-Gly-mPEG3-Atazanavir Hydrochloride | 0.602 ± 0.164 | 1.24 ± 0.237 h | 6.07 ± 3.82 | 7.38 ± 6.67 |  |  |  |  | AUCall Mean [3, 7]: 69.6 ng·h/mL; Cmax Mean [3, 7]: 5.02 ng/mL; MRT last Mean [3, 7]: 12.6 h; Tmax* Median [3, 7]: 1.00 h
mPEG3-atazanavir-ethoxy-CME-Leu-Leu [mPEG-3-Atazanavir-Ethoxy-CM-Leu-Leu] | 1.01 ± 0.095 | 1.21 NC^ hr | 8.27 ± 3.06 | 2.95 ± 1.30 |  |  |  |  | AUCall Mean [3, 7]: 148 ng·h/mL; Cmax Mean [3, 7]: 6.42 ng/mL; MRT last Mean [3, 7]: 16.5 h; Tmax* Median [3, 7]: 9.00 h

— patent US20120108501A1, “Protease Inhibitors” (priority 2009, published 2012)
